# According to ChEMBL document CHEMBL1145621, “Orally efficacious thrombin inhibitors with cyanofluorophenylacetamide as the P2 motif” (Bioorg Med Chem Lett, 2008):
# Assays:
# [1] = Cmax in po dosed dog; assay type: ADME, organism-based, Canis lupus familiaris; set-up: route oral; conditions: in vivo
# [2] = Half life in iv dosed dog; assay type: ADME, organism-based, Canis lupus familiaris; conditions: in vivo
# [3] = Metabolic stability in dog liver microsomes after 10 mins; assay type: ADME, Canis lupus familiaris, Microsome; conditions: read-out: Stability
# [4] = Clearance in dog at 1 mg/kg, iv; assay type: ADME, organism-based, Canis lupus familiaris; set-up: dose 1 mg/kg, route intravenous; conditions: in vivo
# [5] = Bioavailability in dog at 10 mg/kg, po; assay type: ADME, organism-based, Canis lupus familiaris; conditions: in vivo
# [6] = Oral bioavailability in rat; assay type: ADME, organism-based; conditions: in vivo
# [7] = Cmax in dog at 10 mg/kg, po; assay type: ADME, organism-based, Canis lupus familiaris; set-up: dose 10 mg/kg, route oral; conditions: in vivo
# [8] = Volume of distribution at steady state in dog at 1 mg/kg, iv; assay type: ADME, organism-based, Canis lupus familiaris; set-up: dose 1 mg/kg, route intravenous; conditions: in vivo, read-out: Vdss
# [9] = Half life in dog at 10 mg/kg, po; assay type: ADME, organism-based, Canis lupus familiaris; set-up: dose 10 mg/kg, route oral; conditions: in vivo
# [10] = Half life in dog at 1 mg/kg, iv; assay type: ADME, organism-based, Canis lupus familiaris; set-up: dose 1 mg/kg, route intravenous; conditions: in vivo
# [11] = Oral bioavailability in dog; assay type: ADME, organism-based, Canis lupus familiaris; conditions: in vivo
# [12] = Metabolic stability in rat liver microsomes after 10 mins; assay type: ADME, Microsome; conditions: read-out: Stability
# [13] = Metabolic stability in human liver microsomes after 10 mins; assay type: ADME, Microsome; conditions: read-out: Stability
# [14] = Clearance in rat at 2 mg/kg, iv; assay type: ADME, organism-based; set-up: dose 2 mg/kg, route intravenous; conditions: in vivo
# [15] = Half life in rat at 2 mg/kg, iv; assay type: ADME, organism-based; set-up: dose 2 mg/kg, route intravenous; conditions: in vivo
# [16] = Volume of distribution at steady state in rat at 2 mg/kg, iv; assay type: ADME, organism-based; set-up: dose 2 mg/kg, route intravenous; conditions: in vivo, read-out: Vdss
# [17] = Cmax in rat at 10 mg/kg, po; assay type: ADME, organism-based; set-up: dose 10 mg/kg, route oral; conditions: in vivo
# [18] = Bioavailability in rat at 10 mg/kg, po; assay type: ADME, organism-based; conditions: in vivo
# [19] = Clearance in rat at 3 mg/kg, iv; assay type: ADME, organism-based; set-up: dose 3 mg/kg, route intravenous; conditions: in vivo
# [20] = Volume of distribution at steady state in rat at 3 mg/kg, iv; assay type: ADME, organism-based; set-up: dose 3 mg/kg, route intravenous; conditions: in vivo, read-out: Vdss
# [21] = Bioavailability in rat at 30 mg/kg, po; assay type: ADME, organism-based; conditions: in vivo
# [22] = Cmax in rat at 30 mg/kg, po; assay type: ADME, organism-based; set-up: dose 30 mg/kg, route oral; conditions: in vivo
# [23] = Half life in rat at 30 mg/kg, po; assay type: ADME, organism-based; set-up: dose 30 mg/kg, route oral; conditions: in vivo
# [24] = Half life in rat at 3 mg/kg, iv; assay type: ADME, organism-based; set-up: dose 3 mg/kg, route intravenous; conditions: in vivo
SMILES,half-life [2] [h],remaining at 10 min [3] [%],clearance [4] [mL/min/kg],bioavailability [5] [%],bioavailability [6] [%],Cmax [7] [nM],Vd [8] [L/kg],half-life [9] [h],half-life [10] [h],remaining at 10 min [12] [%],further results
Cc1nc(N)ccc1CNC(=O)Cc1c(C#N)ccc(NCC(F)(F)c2ccccn2)c1F,1.1,100,34,26,–,–,–,–,–,–,Cmax [1]: 800 nM
CCCN(Cc1ccoc1)C(=O)c1cc(C)cc(OCC2(CON=C(N)N)CC2)c1,4.4,–,–,–,24,–,–,–,–,–,–
Cc1cccc(C(F)(F)CNc2ccc(C#N)c(CC(=O)NCCONC(=N)N)c2F)n1,–,–,15,65,–,3300,2.9,3.2,2.8,–,–
Cc1cccc(S(=O)(=O)Nc2ccc(C)n(CC(=O)NCCONC(=N)N)c2=O)c1,–,–,–,–,6,–,–,–,–,–,bioavailability [11]: 24%
N#Cc1ccc(NCC(F)(F)c2ccccn2)c(F)c1CC(=O)NCCONC(=N)N,–,≥ 86,13,49,–,3500,2.9,2.5,2.9,> 95,remaining at 10 min [13]: ≥ 86%; clearance [14]: 67 mL/min/kg; half-life [15]: 1 h; Vd [16]: 6 L/kg; Cmax [17]: 30 nM; bioavailability [18]: 2%
Cc1ccc(C(F)(F)CNc2ccc(C#N)c(CC(=O)NCCONC(=N)N)c2F)nc1,–,–,18,45,–,2800,3.6,2.5,3.6,> 95,clearance [19]: 30 mL/min/kg; Vd [20]: 2.3 L/kg; bioavailability [21]: 2%; Cmax [22]: 250 nM; half-life [23]: 2.5 h; half-life [24]: 1.3 h
